{
  "source": "PubChem BioAssay (NCI)",
  "experiment_in_all_cases": "DTP human tumour cell line panel, 48 h",
  "key": {"UO-31 renal": {"test_system": "UO-31 renal"}, "HCT-15 colon": {"test_system": "HCT-15 colon"}, "HCC-2998 colon": {"test_system": "HCC-2998 colon"}, "IGROV1 ovarian": {"test_system": "IGROV1 ovarian"}, "SW-620 colon": {"test_system": "SW-620 colon"}, "SF-295 CNS": {"test_system": "SF-295 CNS"}, "UACC-257 melanoma": {"test_system": "UACC-257 melanoma"}, "MALME-3M melanoma": {"test_system": "MALME-3M melanoma"}, "U251 CNS": {"test_system": "U251 CNS"}, "HT29 colon": {"test_system": "HT29 colon"}, "M14 melanoma": {"test_system": "M14 melanoma"}, "TK-10 renal": {"test_system": "TK-10 renal"}, "OVCAR-4 ovarian": {"test_system": "OVCAR-4 ovarian"}, "DU-145 prostate": {"test_system": "DU-145 prostate"}, "SN12C renal": {"test_system": "SN12C renal"}, "HCT-116 colon": {"test_system": "HCT-116 colon"}, "LOX IMVI melanoma": {"test_system": "LOX IMVI melanoma"}, "A549 NSCLC": {"test_system": "A549 NSCLC"}, "SK-MEL-28 melanoma": {"test_system": "SK-MEL-28 melanoma"}, "PC-3 prostate": {"test_system": "PC-3 prostate"}, "UACC-62 melanoma": {"test_system": "UACC-62 melanoma"}, "K-562 leukemia": {"test_system": "K-562 leukemia"}, "SK-OV-3 ovarian": {"test_system": "SK-OV-3 ovarian"}, "HOP-18 NSCLC": {"test_system": "HOP-18 NSCLC"}, "A498 renal": {"test_system": "A498 renal"}, "OVCAR-8 ovarian": {"test_system": "OVCAR-8 ovarian"}, "MCF7 breast": {"test_system": "MCF7 breast"}, "BT-549 breast": {"test_system": "BT-549 breast"}, "EKVX NSCLC": {"test_system": "EKVX NSCLC"}, "OVCAR-5 ovarian": {"test_system": "OVCAR-5 ovarian"}, "DLD-1 colon": {"test_system": "DLD-1 colon"}, "M19-MEL melanoma": {"test_system": "M19-MEL melanoma"}, "COLO 205 colon": {"test_system": "COLO 205 colon"}, "MDA-MB-231 breast": {"test_system": "MDA-MB-231 breast"}, "RPMI-8226 leukemia": {"test_system": "RPMI-8226 leukemia"}, "SNB-78 CNS": {"test_system": "SNB-78 CNS"}, "NCI-H522 lung": {"test_system": "NCI-H522 lung"}, "NCI-H460 lung": {"test_system": "NCI-H460 lung"}, "RXF 393 renal": {"test_system": "RXF 393 renal"}, "HL-60(TB) leukemia": {"test_system": "HL-60(TB) leukemia"}, "LXFL 529 NSCLC": {"test_system": "LXFL 529 NSCLC"}, "MOLT-4 leukemia": {"test_system": "MOLT-4 leukemia"}, "786-0 renal": {"test_system": "786-0 renal"}, "NCI-H23 lung": {"test_system": "NCI-H23 lung"}, "XF 498 CNS": {"test_system": "XF 498 CNS"}, "DMS 273 small cell lung": {"test_system": "DMS 273 small cell lung"}, "HOP-62 NSCLC": {"test_system": "HOP-62 NSCLC"}, "CAKI-1 renal": {"test_system": "CAKI-1 renal"}, "SF-539 CNS": {"test_system": "SF-539 CNS"}, "DMS 114 small cell lung": {"test_system": "DMS 114 small cell lung"}, "KM12 colon": {"test_system": "KM12 colon"}, "ACHN renal": {"test_system": "ACHN renal"}, "T-47D breast": {"test_system": "T-47D breast"}, "KM20L2 colon": {"test_system": "KM20L2 colon"}, "MDA-N": {"test_system": "MDA-N"}, "HOP-92 NSCLC": {"test_system": "HOP-92 NSCLC"}, "SNB-19 CNS": {"test_system": "SNB-19 CNS"}, "NCI-H226 lung": {"test_system": "NCI-H226 lung"}, "SF-268 CNS": {"test_system": "SF-268 CNS"}, "SR leukemia": {"test_system": "SR leukemia"}, "NCI/ADR-RES ovarian": {"test_system": "NCI/ADR-RES ovarian"}, "OVCAR-3 ovarian": {"test_system": "OVCAR-3 ovarian"}, "CCRF-CEM leukemia": {"test_system": "CCRF-CEM leukemia"}, "SK-MEL-2 melanoma": {"test_system": "SK-MEL-2 melanoma"}, "SK-MEL-5 melanoma": {"test_system": "SK-MEL-5 melanoma"}, "MDA-MB-435": {"test_system": "MDA-MB-435"}},
  "note": "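Five concentrations, 48 hours, 96-well plates. TGI marks complete inhibition of growth.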",
  "data": [
    {"compound": "C[C@]12CC[C@@H]3c4ccc(O)cc4CC[C@H]3[C@@H]1CC[C@@H]2OC(=O)CCC1CCCC1", "values": [
      {"measurement": "TGI", "setting": "UO-31 renal", "result": 35.3, "unit": "µM"},
      {"measurement": "TGI", "setting": "HCT-15 colon", "result": 33.8, "unit": "µM"},
      {"measurement": "TGI", "setting": "HCC-2998 colon", "result": 37.8, "unit": "µM"},
      {"measurement": "TGI", "setting": "IGROV1 ovarian", "result": 33.4, "unit": "µM"},
      {"measurement": "TGI", "setting": "SW-620 colon", "result": 38.1, "unit": "µM"},
      {"measurement": "TGI", "setting": "SF-295 CNS", "result": 31.8, "unit": "µM"},
      {"measurement": "TGI", "setting": "UACC-257 melanoma", "result": "> 57.7", "unit": "µM"},
      {"measurement": "TGI", "setting": "MALME-3M melanoma", "result": 55.3, "unit": "µM"},
      {"measurement": "TGI", "setting": "U251 CNS", "result": 33.5, "unit": "µM"},
      {"measurement": "TGI", "setting": "HT29 colon", "result": 32, "unit": "µM"},
      {"measurement": "TGI", "setting": "M14 melanoma", "result": 43.4, "unit": "µM"},
      {"measurement": "TGI", "setting": "TK-10 renal", "result": 48.4, "unit": "µM"},
      {"measurement": "TGI", "setting": "OVCAR-4 ovarian", "result": 32, "unit": "µM"},
      {"measurement": "TGI", "setting": "DU-145 prostate", "result": 26.9, "unit": "µM"},
      {"measurement": "TGI", "setting": "SN12C renal", "result": 31.2, "unit": "µM"},
      {"measurement": "TGI", "setting": "HCT-116 colon", "result": 31.1, "unit": "µM"},
      {"measurement": "TGI", "setting": "LOX IMVI melanoma", "result": 35.6, "unit": "µM"},
      {"measurement": "TGI", "setting": "A549 NSCLC", "result": 32.2, "unit": "µM"},
      {"measurement": "TGI", "setting": "SK-MEL-28 melanoma", "result": 34.2, "unit": "µM"},
      {"measurement": "TGI", "setting": "PC-3 prostate", "result": 31.3, "unit": "µM"},
      {"measurement": "TGI", "setting": "UACC-62 melanoma", "result": 27.5, "unit": "µM"},
      {"measurement": "TGI", "setting": "K-562 leukemia", "result": 35.2, "unit": "µM"},
      {"measurement": "TGI", "setting": "SK-OV-3 ovarian", "result": 38.3, "unit": "µM"},
      {"measurement": "TGI", "setting": "HOP-18 NSCLC", "result": 59.6, "unit": "µM"},
      {"measurement": "TGI", "setting": "A498 renal", "result": 38.8, "unit": "µM"},
      {"measurement": "TGI", "setting": "OVCAR-8 ovarian", "result": 31.7, "unit": "µM"},
      {"measurement": "TGI", "setting": "MCF7 breast", "result": 31, "unit": "µM"},
      {"measurement": "TGI", "setting": "BT-549 breast", "result": 32.7, "unit": "µM"},
      {"measurement": "TGI", "setting": "EKVX NSCLC", "result": 21, "unit": "µM"},
      {"measurement": "TGI", "setting": "OVCAR-5 ovarian", "result": "> 57.2", "unit": "µM"},
      {"measurement": "TGI", "setting": "DLD-1 colon", "result": 98.6, "unit": "µM"},
      {"measurement": "TGI", "setting": "M19-MEL melanoma", "result": 67.9, "unit": "µM"},
      {"measurement": "TGI", "setting": "COLO 205 colon", "result": 33.9, "unit": "µM"},
      {"measurement": "TGI", "setting": "MDA-MB-231 breast", "result": 32.2, "unit": "µM"},
      {"measurement": "TGI", "setting": "RPMI-8226 leukemia", "result": 38.3, "unit": "µM"},
      {"measurement": "TGI", "setting": "SNB-78 CNS", "result": "> 100", "unit": "µM"},
      {"measurement": "TGI", "setting": "NCI-H522 lung", "result": 32.6, "unit": "µM"},
      {"measurement": "TGI", "setting": "NCI-H460 lung", "result": 36.3, "unit": "µM"},
      {"measurement": "TGI", "setting": "RXF 393 renal", "result": 28.3, "unit": "µM"},
      {"measurement": "TGI", "setting": "HL-60(TB) leukemia", "result": 34.8, "unit": "µM"},
      {"measurement": "TGI", "setting": "LXFL 529 NSCLC", "result": 32.1, "unit": "µM"},
      {"measurement": "TGI", "setting": "MOLT-4 leukemia", "result": 35.2, "unit": "µM"},
      {"measurement": "TGI", "setting": "786-0 renal", "result": 29.9, "unit": "µM"},
      {"measurement": "TGI", "setting": "NCI-H23 lung", "result": 34.6, "unit": "µM"},
      {"measurement": "TGI", "setting": "XF 498 CNS", "result": 40.9, "unit": "µM"},
      {"measurement": "TGI", "setting": "DMS 273 small cell lung", "result": 27.7, "unit": "µM"},
      {"measurement": "TGI", "setting": "HOP-62 NSCLC", "result": 33.9, "unit": "µM"},
      {"measurement": "TGI", "setting": "CAKI-1 renal", "result": 33.2, "unit": "µM"},
      {"measurement": "TGI", "setting": "SF-539 CNS", "result": 40.5, "unit": "µM"},
      {"measurement": "TGI", "setting": "DMS 114 small cell lung", "result": 85.9, "unit": "µM"},
      {"measurement": "TGI", "setting": "KM12 colon", "result": "> 56.8", "unit": "µM"},
      {"measurement": "TGI", "setting": "ACHN renal", "result": 55.5, "unit": "µM"},
      {"measurement": "TGI", "setting": "T-47D breast", "result": 28.4, "unit": "µM"},
      {"measurement": "TGI", "setting": "KM20L2 colon", "result": 33.1, "unit": "µM"},
      {"measurement": "TGI", "setting": "MDA-N", "result": 20.2, "unit": "µM"},
      {"measurement": "TGI", "setting": "HOP-92 NSCLC", "result": 47.7, "unit": "µM"},
      {"measurement": "TGI", "setting": "SNB-19 CNS", "result": 31.3, "unit": "µM"},
      {"measurement": "TGI", "setting": "NCI-H226 lung", "result": 36.6, "unit": "µM"},
      {"measurement": "TGI", "setting": "SF-268 CNS", "result": 41.1, "unit": "µM"},
      {"measurement": "TGI", "setting": "SR leukemia", "result": 39.3, "unit": "µM"},
      {"measurement": "TGI", "setting": "NCI/ADR-RES ovarian", "result": 32.9, "unit": "µM"},
      {"measurement": "TGI", "setting": "OVCAR-3 ovarian", "result": 30.1, "unit": "µM"},
      {"measurement": "TGI", "setting": "CCRF-CEM leukemia", "result": 38.4, "unit": "µM"},
      {"measurement": "TGI", "setting": "SK-MEL-2 melanoma", "result": "> 56.4", "unit": "µM"},
      {"measurement": "TGI", "setting": "SK-MEL-5 melanoma", "result": 33.4, "unit": "µM"},
      {"measurement": "TGI", "setting": "MDA-MB-435", "result": 21.7, "unit": "µM"}
    ]}
  ]
}
